Measurements taken from ChEMBL document CHEMBL1158939, “Auranticins A and B: two new depsidones from a mangrove isolate of the fungus Preussia aurantiaca” (J Nat Prod, 1991).
The source made the active and inactive calls. The rule behind the calls is not given here.

What was measured:
Staphylococcus aureus = experiment: Antimicrobial activity against Staphylococcus aureus at 50 ug/disk; format: functional, organism-based
Bacillus subtilis = experiment: Antimicrobial activity against Bacillus subtilis at 5 ug/disk; format: functional, organism-based

Row | SMILES | Activity (Staphylococcus aureus) | Activity (Bacillus subtilis)
1 | C/C=C(\C)c1cc(OC)c(C)c2c1Oc1c(C=O)c(O)cc(/C(C)=C/C(=O)O)c1C(=O)O2 | Active | Active
2 | C/C=C(\C)c1cc(OC)c(C)c2c1Oc1c(CO)c(O)cc(/C(C)=C/C(=O)O)c1C(=O)O2 | Active | Active
